# Experimental data taken from patent US20250262241A1, “METHODS TO IMPROVE STABILITY OF VIRUS TRANSDUCTION OF y8 T CELLS AND APPLICATIONS THEREOF” (UNICET BIOTECH CO. LLC., priority 2021, published 2025).
# Several values for one entry are separate records, joined by “and”; a condition that tells them apart may be missing. Equal entries are not always repeated.
# Assays:
# γδ2 T cells [1] = test: Lentivirus (GFP) transduction of γδ2 T cells with or without BX795; type: cell-based, human
# Description: (§1) VSV-G pseudotyped lentiviral vectors were applied in this method. 1×10^7 293T cells were plated into a poly-D-lysine coated 100 mm dish. Next day the cells were transfected with 6 μg of pCDH-EF1-MCS-T2A-copGFP plasmid (Addgene, Plasmid #72263) or pCDH-EF1-CAR-T2A-copGFP plasmid modified from pCDH-EF1-MCS-T2A-copGFP, 4 μg of pspAx2 (Addgene, Plasmid #12260), 2 μg of pCMV-VSV-G (Addgene, Plasmid #8454) using 30 ug PEI transfection regents. After 8 hours of transfection, the cell culture medium was changed. The supernatant were collected 48 hours and 72 hours later. Concentrated the virus with Lenti-X™ Concentrator (Takara) and monitored the virus titers by transduction of 293T cells and stored the concentrated virus in −80° C. until further use.
# (§2) For lentivirus transduction, 1×10^CFU lentivirus diluted in 200 ul PBS were added in a 24-well plate which were pre-coated with RetroNectin reagent (Takara) and centrifugated by 2,000 g for 2 hours at 32° C. After centrifugation, removed the supernatant and washed the plate with PBS three times slightly.
# (§3) The plates were incubated at 37° C., 5% CO2.
# (§4) After incubation, washed the cells with FACS buffer two times and then resuspended the cells in 200 ul FACS buffer and calculated the data by FACSCalibur (BD Biosciences). The antibodies used for γδ2 T cells were: APC anti-human CD3 (Biolegend, 300412), BV421 anti-human TCR Vδ2 (Biolegend, 331428).
# TBK1 = target: T1, TBK1 (Homo sapiens, UniProt Q9UHD2); settings: cited from earlier work
# T1 sequence (Q9UHD2 1-729): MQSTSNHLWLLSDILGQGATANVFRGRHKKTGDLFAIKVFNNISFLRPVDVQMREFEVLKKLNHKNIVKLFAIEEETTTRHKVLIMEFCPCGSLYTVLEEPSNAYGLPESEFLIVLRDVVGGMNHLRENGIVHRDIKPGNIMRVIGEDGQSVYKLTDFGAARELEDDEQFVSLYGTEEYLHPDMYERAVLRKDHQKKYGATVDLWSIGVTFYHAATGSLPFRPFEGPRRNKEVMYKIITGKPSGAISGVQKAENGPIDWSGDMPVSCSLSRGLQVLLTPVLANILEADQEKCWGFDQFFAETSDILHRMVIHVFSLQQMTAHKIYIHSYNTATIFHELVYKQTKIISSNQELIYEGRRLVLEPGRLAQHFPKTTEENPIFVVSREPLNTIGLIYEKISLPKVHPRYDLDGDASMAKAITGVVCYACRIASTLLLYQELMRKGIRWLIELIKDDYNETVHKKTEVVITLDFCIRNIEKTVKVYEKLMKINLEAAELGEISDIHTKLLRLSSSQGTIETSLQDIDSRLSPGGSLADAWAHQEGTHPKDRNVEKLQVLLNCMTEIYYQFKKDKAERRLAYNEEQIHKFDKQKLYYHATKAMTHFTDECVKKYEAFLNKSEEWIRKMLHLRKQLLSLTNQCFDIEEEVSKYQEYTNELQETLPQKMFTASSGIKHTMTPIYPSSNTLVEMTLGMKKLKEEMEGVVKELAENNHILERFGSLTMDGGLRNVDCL
# γδ2 T cells [2] = test: Exhausted marker expression of γδ2 T cells cultured with/without BX795; type: cell-based, human
# Description: (§5) Wash the cells once with PBS and then staining the cells with antibodies diluted in FACS buffer (PBS+1% FBS+2.5 mM EDTA) at 4° C. for 30 min. The common volume of incubated buffer was 50 μL for 2×10^cells.
# as §4
# [3] = system: γδ T cell products cultured from PBMC; type: cell-based, human; settings: 0.6 μM BX795, after 12 Days in vitro culture
# Description: as §5, §4
# The calculated cell types included γδ2 T, γδ2 CD56+ T, γδ1 T, αβT, NKT, T helper, cytotoxic T, B and NK cells.
# γδ2 T cells [4] = type: cell-based, human; settings: 0.6 uM
# Description: as §3
# γδ1 T cells = test: CAR related lentivirus transduction of γδ1 T cells with small inhibitors; type: cell-based, human; settings: 0.06 uM; control finally around 2%
# Description: as §2, §3
# To test the application of these small molecule on improving the transduction rate of δδ1 T cells. We evaluated the transduction rate of δδ1 T cells with/without different dosage of small molecules.
# γδ2 T cells [5] = test: CAR (B7H3) related lentivirus transduction of γδ2 T cells with small inhibitors: transduction rate; type: cell-based, human; settings: 0.6 uM, day 10; control below 10%
# Description: as §1, §2
# For the virus transduction of γδ2 T cells, seeded 1×10^PBMCs which were in vitro cultured after 48 hours in the γδ2 T cell culture medium mentioned above (Gibco serum free medium with rhIL-2 and ZOL). Added or not small inhibitors and mixed well and concentrated the cells by 800 g for 10 mins at 32° C. The plates were incubated at 37° C., 5% CO2. Discarded the small inhibitors regent by changing the cell culture medium 24 hours later.
# Calculate the cell number by an automated cell counter and the transduction rate (GFP positive rate) was analyzed by flow cytometry every 2 to 3 days. The transduction rate was monitored in the gate of γδ2 or γδ1 T cells.
substance,measurement,setting,value
BX795,total positive transduced γδ2 T cells,γδ2 T cells [1]; 0.2 μM or 0.6 μM BX795,greatly increased
same,"final transduction rate, 2 μM compared with 0.6 μM BX795",γδ2 T cells [1]; 2 μM BX795,not significant
same,cell number of transduced γδ2 T cells,"γδ2 T cells [1]; 2 μM or 6 μM BX795, vs control group",lower than the control group
same,IC50,TBK1,6 nM
same,"cell percentage of exhausted cell types (PD-1, LAG-3, TIGIT, TIM-3)",γδ2 T cells [2]; BX795 treatment vs control,improved the cell percentage of all the exhausted cell types slightly
same,"γδ2 LAG-3+ T cell (CD3+TCRVδ2+LAG-3+), cell percentage of total lymphocytes",γδ2 T cells [2]; cultured with BX795,85.58% and 85.77%
same,"γδ2 PD-1+ T cell (CD3+TCRVδ2+PD-1+), cell percentage of total lymphocytes",γδ2 T cells [2]; cultured with BX795,11.83% and 11.17%
same,"γδ2 T cell (CD3+TCRVδ2+), cell percentage of total lymphocytes",γδ2 T cells [2]; cultured with BX795,85.75% and 85.94%
same,"γδ2 TIGIT+ T cell (CD3+TCRVδ2+TIGIT+), cell percentage of total lymphocytes",γδ2 T cells [2]; cultured with BX795,23.24% and 26.98%
same,"γδ2 TIM-3+ T cell (CD3+TCRVδ2+TIM-3+), cell percentage of total lymphocytes",γδ2 T cells [2]; cultured with BX795,84.55% and 84.91%
same,"B cell (CO3−TCRVδ2−CD19+), cell percentage of total lymphocytes",[3],0.27% and 0.32%
same,"NK cell (CD3−TCRVδ2−CD56+), cell percentage of total lymphocytes",[3],2.66% and 2.20%
same,"NKT cell (CD3+TCRVδ2−TCRVδ1−TCRαβ+CD56+), cell percentage of total lymphocytes",[3],0.34% and 0.31%
same,"T helper cell (CD3+TCRVδ2−TCRVδ1− TCRαβ+CD56−CD8−CD4+), cell percentage of total lymphocytes",[3],5.26% and 5.40%
same,cell types of the final γδ T cell products vs control group,[3],comparable cell types with the control group
same,"αβ T cell (CD3+TCRVδ2−TCRVδ1−TCRαβ+), cell percentage of total lymphocytes",[3],7.22% and 7.20%
same,"γδ2 CD56+ T cell (CD3+TCRVδ2+ CD56+), cell percentage of total lymphocytes",[3],1.89% and 1.69%
same,"γδ2 T cell (CD3+TCRVδ2+), cell percentage of total lymphocytes",[3],85.93% and 86.52%
same,cell growth of γδ2 T,γδ2 T cells [4],did not influence the cell growth
same,effect on transduction rate of γδ1 T cells,γδ1 T cells,could improve the transduction rate
same,transduction rate,γδ2 T cells [5],around 40%
